Measured values as given in patent US10183938B2, “Geminal substituted quinuclidine amide compounds as agonists of α-7 nicotonic acetylcholine receptors” (AXOVANT SCIENCES GMBH, priority 2014, dated 2019).
Counter-ions that a name gives are not always drawn.

Molecular target: human α7 nAChRs transiently expressed in Xenopus laevis oocytes (Homo sapiens (Human), UniProt P36544)
Assay: Oocyte electrophysiology screen (TEVC)
Format: cell-based
Details: 0.01 mM test compound, peak current relative to 0.2 mM ACh
Protocol: Oocyte Electrophysiology Screen (% ACh @ 10 μM Oocyte)
The Oocyte Electrophysiology Screen studies were performed under contract by HiQScreen Geneva, Switzerland. All experiments were carried out at human α7 nAChRs transiently expressed in Xenopus laevis oocytes using the method of cDNA expression. Currents evoked by acetylcholine or other agonist ligands were recorded using the standard two-electrode voltage-clamp configuration (TEVC). X. laevis oocytes were prepared and injected using standard procedures. Briefly, ovaries were harvested from X. laevis females that were deeply anesthetized and pithed following the animal rights rule from the Geneva canton. A small piece of ovary was isolated for immediate preparation while the remaining part was placed at 4° C. in a sterile Barth solution containing in mM: NaCl 88, KCl 1, NaHCO3 2.4, HEPES 10, MgSO4.7H2O 0.82, Ca(NO3)2.4H2O 0.33, CaCl2.6H2O 0.41, at pH 7.4, and supplemented with 20 μg/mL of kanamycin, 100 unit/mL penicillin and 100 μg/mL streptomycin. […] Cells were held at −80 mV. Data were filtered at 10 Hz, captured at 100 Hz and analyzed using proprietary data acquisition and analysis software running under Matlab (Mathworks Inc.).
Experimental Protocol and Analysis
After establishing a baseline transmembrane current, acetylcholine (ACh) was applied for 5 seconds at a concentration of 0.2 mM to establish a control ACh-evoked current response. Following a wash period of 90 s in OR2 medium (free of ACh), cells were then exposed for 30 s to the test compound applied at 0.01 mM. The same reference ACh test pulse was immediately given at the end of the compound exposure and again after 90 s of recovery in OR2 Medium (free of ACh or test compound). All data were determined in triplicate. The response evoked by the test compound was expressed as a percentage of that evoked by ACh: Response (% ACh)=100×(Itest/IACh) where Itest is the peak inward current measured during exposure to 0.01 mM of test compound and IACh is the peak inward current measured in the presence of ACh.

Chain of human α7 nAChRs transiently expressed in Xenopus laevis oocytes (P36544 23-502 limits assumed): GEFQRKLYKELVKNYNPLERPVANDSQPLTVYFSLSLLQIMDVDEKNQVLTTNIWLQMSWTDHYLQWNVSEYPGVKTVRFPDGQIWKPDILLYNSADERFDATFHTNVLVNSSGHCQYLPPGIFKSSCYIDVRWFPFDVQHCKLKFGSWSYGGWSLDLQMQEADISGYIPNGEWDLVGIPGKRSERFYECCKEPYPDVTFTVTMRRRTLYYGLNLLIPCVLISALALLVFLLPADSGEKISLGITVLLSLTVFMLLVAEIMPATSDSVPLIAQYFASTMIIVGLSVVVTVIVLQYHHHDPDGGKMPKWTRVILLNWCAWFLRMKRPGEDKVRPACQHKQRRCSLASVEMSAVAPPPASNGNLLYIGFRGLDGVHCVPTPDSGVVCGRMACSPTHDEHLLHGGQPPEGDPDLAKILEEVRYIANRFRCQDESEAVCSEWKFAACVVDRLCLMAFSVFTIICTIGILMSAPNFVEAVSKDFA

Row | SMILES | % ACh @ 10 μM Oocyte (hydrochloride) [% ACh] | % ACh @ 10 μM Oocyte [% ACh]
1 | CC1(C)C(NC(=O)c2cc3ccccc3s2)C2CCN1CC2 (single isomer, unassigned; enantiomer1) [1a, N-(2,2-dimethylquinuclidin-3-yl)benzo[b]thiophene-2-carboxamide-enantiomer1 hydrochloride] | 1470 | 
2 | O=C(NC1C2CCN(CC2)C12CC2)c1cc2ccccc2s1 (single isomer, unassigned; enantiomer1) [54a, N-(1′-azaspiro[cyclopropane-1,2′-bicyclo[2.2.2]octan]-3′-yl)benzo[b]thiophene-2-carboxamide-enantiomer1 hydrochloride] | 4.5 | 
3 | O=C(NC1C2CCN(CC2)C12CC2)c1cc2cccc(F)c2s1 (single isomer, unassigned; enantiomer1) [57a, 7-fluoro-N-(1′-azaspiro[cyclopropane-1,2′-bicyclo[2.2.2]octan]-3′-yl)benzo[b]thiophene-2-carboxamide-enantiomer1 hydrochloride] | 386 | 
4 | Nc1ccc2cc(C(=O)NC3C4CCN(CC4)C34CC4)sc2c1 (single isomer, unassigned; enantiomer1) [62a, 6-amino-N-(1′-azaspiro[cyclopropane-1,2′-bicyclo[2.2.2]octan]-3′-yl)benzo[b]thiophene-2-carboxamide-enantiomer1 hydrochloride] | 35 | 
5 | O=C(NC1C2CCN(CC2)C12CC2)c1cc2ccc(C(F)(F)F)cc2s1 (single isomer, unassigned; enantiomer1) [63a, N-(1′-azaspiro[cyclopropane-1,2′-bicyclo[2.2.2]octan]-3′-yl)-6-(trifluoromethyl)benzo[b]thiophene-2-carboxamide-enantiomer1] |  | 3
6 | O=C(NC1C2CCN(CC2)C12CC2)c1cc2cc(Cl)ccc2s1 (single isomer, unassigned; enantiomer1) [66a, 5-chloro-N-(1′-azaspiro[cyclopropane-1,2′-bicyclo[2.2.2]octan]-3′-yl)benzo[b]thiophene-2-carboxamide-enantiomer1 hydrochloride] | 2 | 
7 | O=C(NC1C2CCN(CC2)C12CC2)c1cc2cc(Cl)ccc2s1 (single isomer, unassigned; enantiomer1) [66b, 5-chloro-N-(1′-azaspiro[cyclopropane-1,2′-bicyclo[2.2.2]octan]-3′-yl)benzo[b]thiophene-2-carboxamide-enantiomer1 hydrochloride] | 29 | 
8 | O=C(NC1C2CCN(CC2)C12CC2)c1cc2cc(Cl)c(Cl)cc2s1 (single isomer, unassigned; enantiomer1) [67a, 5,6-dichloro-N-(1′-azaspiro[cyclopropane-1,2′-bicyclo[2.2.2]octan]-3′-yl)benzo[b]thiophene-2-carboxamide-enantiomer1 hydrochloride] |  | 1
9 | Cc1ccc2sc(C(=O)NC3C4CCN(CC4)C34CC4)cc2c1 (single isomer, unassigned; enantiomer1) [69a, 5-methyl-N-(1′-azaspiro[cyclopropane-1,2′-bicyclo[2.2.2]octan]-3′-yl)benzo[b]thiophene-2-carboxamide-enantiomer1 hydrochloride] | 162 | 
10 | O=C(NC1C2CCN(CC2)C12CC2)c1cc2cc(C(F)(F)F)ccc2s1 (single isomer, unassigned; enantiomer1) [70a, N-(1′-azaspiro[cyclopropane-1,2′-bicyclo[2.2.2]octan]-3′-yl)-5-(trifluoromethyl)benzo[b]thiophene-2-carboxamide-enantiomer1 hydrochloride] | 2 | 
11 | O=C(NC1C2CCN(CC2)C12CC2)c1cc2ccc(C3CC3)cc2s1 (single isomer, unassigned; enantiomer1) [71a, 6-cyclopropyl-N-(1′-azaspiro[cyclopropane-1,2′-bicyclo[2.2.2]octan]-3′-yl)benzo[b]thiophene-2-carboxamide-enantiomer1 hydrochloride] | 739 | 
12 | O=C(NC1C2CCN(CC2)C12CC2)c1cc2cc(C3CC3)ccc2s1 (single isomer, unassigned; enantiomer1) [72a, 5-cyclopropyl-N-(1′-azaspiro[cyclopropane-1,2′-bicyclo[2.2.2]octan]-3′-yl)benzo[b]thiophene-2-carboxamide-enantiomer1 hydrochloride] | 188 | 
13 | COc1ccc2cc(C(=O)NC3C4CCN(CC4)C34CC4)sc2c1 (single isomer, unassigned; enantiomer1) [73a, 6-methoxy-N-(1′-azaspiro[cyclopropane-1,2′-bicyclo[2.2.2]octan]-3′-yl)benzo[b]thiophene-2-carboxamide-enantiomer1 hydrochloride] | 1036 | 
14 | COc1ccc2sc(C(=O)NC3C4CCN(CC4)C34CC4)cc2c1 (single isomer, unassigned; enantiomer1) [74a, 5-methoxy-N-(1′-azaspiro[cyclopropane-1,2′-bicyclo[2.2.2]octan]-3′-yl)benzo[b]thiophene-2-carboxamide-enantiomer1 hydrochloride] | 32 | 
15 | CC1(C)C(NC(=O)c2cc3ccccc3s2)C2CCN1CC2 (single isomer, unassigned; enantiomer2) [1b, N-(2,2-dimethylquinuclidin-3-yl)benzo[b]thiophene-2-carboxamide-enantiomer2 hydrochloride] | 2 | 
16 | O=C(NC1C2CCN(CC2)C12CC2)c1cc2ccccc2s1 (single isomer, unassigned; enantiomer2) [54b, N-(1′-azaspiro[cyclopropane-1,2′-bicyclo[2.2.2]octan]-3′-yl)benzo[b]thiophene-2-carboxamide-enantiomer2 hydrochloride] | 1319 | 
17 | O=C(NC1C2CCN(CC2)C12CC2)c1cc2cccc(Cl)c2s1 (single isomer, unassigned; enantiomer2) [56b, 7-chloro-N-(1′-azaspiro[cyclopropane-1,2′-bicyclo[2.2.2]octan]-3′-yl)benzo[b]thiophene-2-carboxamide-enantiomer2] |  | 0
18 | O=C(NC1C2CCN(CC2)C12CC2)c1cc2cccc(F)c2s1 (single isomer, unassigned; enantiomer2) [57b, 7-fluoro-N-(1′-azaspiro[cyclopropane-1,2′-bicyclo[2.2.2]octan]-3′-yl)benzo[b]thiophene-2-carboxamide-enantiomer2 hydrochloride] | 4 | 
19 | O=C(NC1C2CCN(CC2)C12CC2)c1ccc2ccsc2c1 (single isomer, unassigned; enantiomer2) [58b, N-(1′-azaspiro[cyclopropane-1,2′-bicyclo[2.2.2]octan]-3′-yl)benzo[b]thiophene-6-carboxamide-enantiomer2] |  | 5
20 | O=C(NC1C2CCN(CC2)C12CC2)c1ccc2occc2c1 (single isomer, unassigned; enantiomer2) [59b, N-(1′-azaspiro[cyclopropane-1,2′-bicyclo[2.2.2]octan]-3′-yl)benzofuran-5-carboxamide-enantiomer2] |  | 27
